Reference: PMC6891286, “Towards the Development of an In vivo Chemical Probe for Cyclin G Associated Kinase (GAK)” (Molecules, 2019)
Like-named read-outs stand apart in the source and are kept apart here. Each block holds one compound with its values, some of them ahead of it.

Key:
CYP2C19 = system: CYP2C19; set-up: method as in PMID 18936109; conditions: cited from earlier work
CYP2C8 = system: CYP2C8; set-up: method as in PMID 18936109; conditions: cited from earlier work
CYP2C9 = system: CYP2C9; set-up: method as in PMID 18936109; conditions: cited from earlier work
CYP2D6 = system: CYP2D6; set-up: method as in PMID 18936109; conditions: cited from earlier work
CYP2B6 = system: CYP2B6; set-up: method as in PMID 18936109; conditions: cited from earlier work
CYP2A6 = system: CYP2A6; set-up: method as in PMID 18936109; conditions: cited from earlier work
CYP1A2 = system: CYP1A2; set-up: method as in PMID 18936109; conditions: cited from earlier work
CYP3A4 = system: CYP3A4; set-up: method as in PMID 18936109; conditions: cited from earlier work
[1] = system: prostate cancer cells that contain constitutively-active splice variants of the androgen receptor; set-up: method as in PMID 30973735; conditions: cited from earlier work
[2] = pharmacokinetic profiling in mice, oral dosing; format: in vivo; conditions: C57BL/6 mice, 10 mg/kg po; for Cmax / AUC(0-inf) / Tmax: 10 mg/kg
Method: Pharmacokinetic profiling was performed by SAI Life Sciences (Hyderabad, India). […] Prior approval of the Institutional Animal Ethics Committee (IAEC) was obtained before initiation of the study. Healthy male C57BL/6 mice (8–12 weeks old) weighing between 20 and 35 g were procured from (Envigo Research Private Ltd., City, Hyderabad, India). Three mice were housed in each cage. […] Temperature and humidity were recorded by an automatically controlled data logger system. All animals were provided a laboratory rodent diet (Envigo Research Private Ltd., Hyderabad, India). Reverse osmosis water treated with ultraviolet light was provided ad libitum. Eighteen male mice were weighed and divided in to two groups (Group 1 and Group 2), with nine mice in each group. […] The dosing volume administered was 10 mL/kg for the oral route. […] Plasma samples were separated by centrifugation at 4000 rpm for 10 min and stored below −70 °C until bioanalysis. […] The plasma concentration-time data were then used for the pharmacokinetic analysis. A non-compartmental analysis module in Phoenix WinNonlin (Version 6.3, Certara USA Inc., Raleigh, NC, USA) was used to assess the pharmacokinetic parameters. Maximum concentration (Cmax) and time to reach the maximum concentration (Tmax) were the observed values. The areas under the concentration time curve (AUClast and AUCinf) were calculated by linear trapezoidal rule.

GAK [3] = molecular target: T1, GAK (Homo sapiens, UniProt O14976); set-up: method as in PMID 30768268, PMID 30973735; conditions: cited from earlier work
T1 sequence (O14976 1-1311): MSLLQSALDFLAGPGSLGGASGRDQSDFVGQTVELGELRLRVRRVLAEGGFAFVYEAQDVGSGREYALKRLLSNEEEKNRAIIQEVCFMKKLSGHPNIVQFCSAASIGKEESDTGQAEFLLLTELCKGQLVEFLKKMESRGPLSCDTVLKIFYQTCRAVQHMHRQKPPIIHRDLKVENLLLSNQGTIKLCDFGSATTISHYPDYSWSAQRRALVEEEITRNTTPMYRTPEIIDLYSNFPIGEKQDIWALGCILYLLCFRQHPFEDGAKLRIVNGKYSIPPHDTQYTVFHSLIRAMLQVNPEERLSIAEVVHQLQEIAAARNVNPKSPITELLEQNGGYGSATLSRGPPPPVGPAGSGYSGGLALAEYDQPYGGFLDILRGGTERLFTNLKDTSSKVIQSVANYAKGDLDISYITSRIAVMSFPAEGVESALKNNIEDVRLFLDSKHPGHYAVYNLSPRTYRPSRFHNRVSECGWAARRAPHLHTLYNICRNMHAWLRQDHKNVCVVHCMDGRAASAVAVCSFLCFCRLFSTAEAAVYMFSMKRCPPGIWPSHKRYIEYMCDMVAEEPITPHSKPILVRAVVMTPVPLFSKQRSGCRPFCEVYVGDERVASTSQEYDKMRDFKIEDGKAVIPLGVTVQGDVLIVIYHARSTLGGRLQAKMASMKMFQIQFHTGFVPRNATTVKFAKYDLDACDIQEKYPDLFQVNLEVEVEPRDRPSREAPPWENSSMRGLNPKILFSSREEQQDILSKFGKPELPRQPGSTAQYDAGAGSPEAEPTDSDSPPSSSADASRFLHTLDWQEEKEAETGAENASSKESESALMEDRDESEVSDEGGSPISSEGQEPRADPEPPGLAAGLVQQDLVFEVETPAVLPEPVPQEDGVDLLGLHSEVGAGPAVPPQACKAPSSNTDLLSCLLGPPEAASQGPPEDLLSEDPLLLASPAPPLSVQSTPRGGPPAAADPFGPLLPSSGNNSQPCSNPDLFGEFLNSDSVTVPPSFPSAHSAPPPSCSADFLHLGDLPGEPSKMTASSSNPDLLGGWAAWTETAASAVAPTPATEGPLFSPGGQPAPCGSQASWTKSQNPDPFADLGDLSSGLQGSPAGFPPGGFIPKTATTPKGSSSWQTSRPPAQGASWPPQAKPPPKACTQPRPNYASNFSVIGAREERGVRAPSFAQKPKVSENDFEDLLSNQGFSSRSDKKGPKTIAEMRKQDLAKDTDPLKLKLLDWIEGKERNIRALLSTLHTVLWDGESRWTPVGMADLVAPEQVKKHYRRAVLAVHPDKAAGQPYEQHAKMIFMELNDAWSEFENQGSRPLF

AAK1 = AAK1 (Homo sapiens, UniProt Q2M2I8); assay: NAK family TR-FRET binding displacement assay; conditions: NAK family FRET screening
Chain of AAK1 (Q2M2I8 whole entry): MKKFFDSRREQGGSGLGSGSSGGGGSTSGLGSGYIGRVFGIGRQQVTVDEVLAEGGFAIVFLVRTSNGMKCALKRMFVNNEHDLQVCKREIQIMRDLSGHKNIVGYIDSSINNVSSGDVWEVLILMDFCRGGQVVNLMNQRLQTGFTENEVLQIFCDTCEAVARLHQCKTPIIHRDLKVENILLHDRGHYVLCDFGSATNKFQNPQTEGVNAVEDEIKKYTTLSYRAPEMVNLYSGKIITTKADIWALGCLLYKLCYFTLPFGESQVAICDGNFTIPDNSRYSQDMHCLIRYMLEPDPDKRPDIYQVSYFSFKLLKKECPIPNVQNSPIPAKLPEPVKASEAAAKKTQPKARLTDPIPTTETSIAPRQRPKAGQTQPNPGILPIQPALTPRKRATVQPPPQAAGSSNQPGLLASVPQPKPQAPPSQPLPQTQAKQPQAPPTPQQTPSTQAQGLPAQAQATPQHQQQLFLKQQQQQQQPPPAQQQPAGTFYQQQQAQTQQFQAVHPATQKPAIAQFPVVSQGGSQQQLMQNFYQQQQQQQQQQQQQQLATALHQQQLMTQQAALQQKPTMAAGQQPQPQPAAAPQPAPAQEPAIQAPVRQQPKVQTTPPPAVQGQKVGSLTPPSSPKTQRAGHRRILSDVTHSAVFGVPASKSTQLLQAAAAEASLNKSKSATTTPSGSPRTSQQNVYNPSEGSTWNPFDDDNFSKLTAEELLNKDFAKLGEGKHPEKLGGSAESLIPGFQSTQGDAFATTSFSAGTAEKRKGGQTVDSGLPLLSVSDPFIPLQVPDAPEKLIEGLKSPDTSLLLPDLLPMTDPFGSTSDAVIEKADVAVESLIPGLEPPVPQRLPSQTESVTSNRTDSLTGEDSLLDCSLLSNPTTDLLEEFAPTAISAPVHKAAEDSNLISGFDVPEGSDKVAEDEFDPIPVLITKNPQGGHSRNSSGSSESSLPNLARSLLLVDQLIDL

[4] = mouse liver microsome metabolic stability; conditions: for CLint scaled / half-life: mouse; for half-life: mean average, n = 2
Method: SGC-GAK-1 (1) was incubated with MLMs in the presence or absence of added NADPH, and the compound was quantified at various time points over an hour.
The metabolic stability of the 4-anilinoquinolines (8–13) were evaluated in MLMs (Table 1). Half-lives for metabolic clearance were normalized to propranolol in each experimental run to control for variations in the MLM preparations.

Kinetic Solubility = format: physicochemical; conditions: pH 7.4, aqueous buffer, kinetic from dmso stock, PBS pH7.4 (100 µM)
STK16 = STK16 (Homo sapiens, UniProt O75716); assay: NAK family TR-FRET binding displacement assay; conditions: NAK family FRET screening; read-out: Binding displacement assay STK16 Ki
Chain of STK16 (O75716 whole entry): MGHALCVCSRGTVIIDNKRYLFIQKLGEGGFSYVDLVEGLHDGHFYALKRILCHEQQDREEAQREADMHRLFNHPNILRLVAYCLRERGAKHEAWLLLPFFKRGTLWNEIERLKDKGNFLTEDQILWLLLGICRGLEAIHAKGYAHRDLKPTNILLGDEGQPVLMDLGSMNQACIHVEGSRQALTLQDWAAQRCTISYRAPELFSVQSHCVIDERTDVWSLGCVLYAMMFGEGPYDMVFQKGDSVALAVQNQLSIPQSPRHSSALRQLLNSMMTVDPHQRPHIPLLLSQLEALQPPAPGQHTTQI

GAK [5] = molecular target: T1, GAK; assay: TR-FRET ligand-binding displacement assay; conditions: TR-FRET assay; read-out: Biochemical GAK Ki
BMP2K = BMP2K (Homo sapiens, UniProt Q9NSY1); assay: NAK family TR-FRET binding displacement assay
Chain of BMP2K (Q9NSY1 whole entry): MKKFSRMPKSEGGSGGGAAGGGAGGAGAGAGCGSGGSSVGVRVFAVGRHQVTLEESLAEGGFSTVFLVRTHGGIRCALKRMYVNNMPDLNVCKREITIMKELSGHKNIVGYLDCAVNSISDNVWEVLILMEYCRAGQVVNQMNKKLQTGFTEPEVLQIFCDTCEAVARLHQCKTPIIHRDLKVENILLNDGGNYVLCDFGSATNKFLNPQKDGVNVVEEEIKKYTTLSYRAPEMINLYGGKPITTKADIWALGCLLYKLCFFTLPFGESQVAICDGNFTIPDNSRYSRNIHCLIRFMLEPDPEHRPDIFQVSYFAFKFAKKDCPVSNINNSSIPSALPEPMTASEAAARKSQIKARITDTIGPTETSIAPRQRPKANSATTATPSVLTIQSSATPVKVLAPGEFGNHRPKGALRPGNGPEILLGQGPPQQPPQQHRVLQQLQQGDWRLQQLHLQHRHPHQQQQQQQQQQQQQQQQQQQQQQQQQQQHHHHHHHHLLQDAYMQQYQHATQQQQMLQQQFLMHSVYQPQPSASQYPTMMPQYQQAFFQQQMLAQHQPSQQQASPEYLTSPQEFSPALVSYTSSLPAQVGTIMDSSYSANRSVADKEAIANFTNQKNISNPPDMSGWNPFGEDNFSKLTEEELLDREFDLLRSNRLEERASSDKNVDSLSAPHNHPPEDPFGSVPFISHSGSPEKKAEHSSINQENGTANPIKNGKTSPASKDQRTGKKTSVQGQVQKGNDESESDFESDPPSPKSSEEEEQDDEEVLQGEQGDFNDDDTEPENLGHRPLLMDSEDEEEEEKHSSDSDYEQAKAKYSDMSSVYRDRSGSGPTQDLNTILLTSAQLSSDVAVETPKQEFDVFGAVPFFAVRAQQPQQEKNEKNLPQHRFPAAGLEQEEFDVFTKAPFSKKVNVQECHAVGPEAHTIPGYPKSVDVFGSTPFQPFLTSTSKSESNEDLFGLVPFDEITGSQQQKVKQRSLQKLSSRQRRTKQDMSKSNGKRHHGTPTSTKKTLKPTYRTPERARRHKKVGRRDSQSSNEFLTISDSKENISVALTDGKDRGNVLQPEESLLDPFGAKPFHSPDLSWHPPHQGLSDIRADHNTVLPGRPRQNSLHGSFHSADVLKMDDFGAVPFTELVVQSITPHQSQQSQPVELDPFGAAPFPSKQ

[6] = metabolite identification in mouse liver microsomes
Method: After centrifugation, the supernatant was subjected to analysis by LCMS, and structures of metabolites were assigned on the basis of their molecular weight and fragmentation pattern.
Compounds were incubated at a concentration of 10 µM with mouse liver microsomes in the presence of an excess of NADPH.
1.1. General Numbering of Metabolites
The metabolites are numbered according to their retention times in the gradient LC-MS analysis in positive […]
ion mode. […] The M number increases […]
consecutively for metabolites with increasing retention time.
To avoid confusion, labelled retention times of a metabolite peak in different injections are the same, which may lead to mismatch between labelled retention time and actual retention time.
General Strategy for Metabolite Identification
The vehicle control and study samples were injected into LC-MS with gradient elution using a Q1 scan method. Searching for potential metabolites was then performed using LightSight software (Applied Biosystems/MDS Sciex) by comparing a total ion current chromatogram of Q1 scan from a study sample with a chromatogram from the corresponding vehicle control sample. The study sample was then injected again to obtain the product ion spectra of potential metabolites using product ion scan methods. The fragmentation patterns of the potential metabolites were then compared to the fragmentation of the parent compound to elucidate the structures of the metabolites.
The assignment of fragments is shown
2.2. Identification of Metabolites in Mouse Liver Microsomal Incubation

GAK [7] = molecular target: T1, GAK; assay: live cell NanoBRET target engagement assay; format: cell-based; conditions: nanoBRET; mean average, n = 2
EGFR = conditions: read-out: EGFR KD; cited from earlier work
[8] = male, C57BL/6, mouse, plasma, po, 2 h pretreat 50 mpk ABT
[9] = male, C57BL/6, mouse, plasma, po, without ABT
[10] = mouse liver microsomes, T1/2 (min), mouse liver microsomes with NADPH
[11] = read-out: Kinetic Solubility µM
[12] = read-out: Kinetic Solubility µg/mL

Structure (SMILES): Nn1nnc2ccccc21 [ABT, 1-aminobenzotriazole]
residual activity CYP2C19 (CYP2C19): up to 20% | residual activity CYP2C8 (CYP2C8): up to 20% | CYP2C9 activity remaining (CYP2C9): 60% | residual activity CYP2D6 (CYP2D6): up to 20% | residual activity CYP2B6 (CYP2B6): up to 20% | inhibition of CYP2A6 activity (CYP2A6): 100% | residual activity CYP1A2 (CYP1A2): up to 20% | inhibition of CYP3A4 activity (CYP3A4): 100%

Structure (SMILES): COc1cc(Nc2ccnc3ccc(Br)cc23)cc(OC)c1OC [Compound 1]
viability of prostate cancer cells [1]: potently inhibits | Cmax ([2]; without ABT): 97 ng/mL | AUC(0-inf) [2, 8]: 1900 ng·h/mL | Tmax [2, 8]: 30 min | Cmax ([2]; male, C57BL/6, mouse, plasma, po, 2 h pretreat 50 mpk ABT, read-out: Cmax): 650 ng/mL | AUC(0-inf) [2, 9]: 98 ng·h/mL | Tmax [2, 9]: 30 min | Cmax ([2]; male, C57BL/6, mouse, plasma, po, without ABT, read-out: Cmax): < 100 ng/mL | half-life ([2]; male, mouse, plasma, without ABT, read-out: T1/2 in mice): < 60 min | GAK DSF ΔTm (GAK [3]): 7.7 °C | Ki (AAK1): 53 µM | degradation in MLM ([4]; mouse liver microsomes in the absence of NADPH, over an hour): No degradation | CLint scaled ([4]; mouse liver microsomes, Clint (mL/min/kg) (+) ABT, mouse liver microsomes, (+) ABT): 40 mL/min/kg | CLint scaled ([4]; mouse liver microsomes, Clint (mL/min/kg) (−) ABT, (−) ABT): 990 mL/min/kg | half-life ([4]; mouse liver microsomes, T1/2 (min) (+) ABT, mouse liver microsomes, (+) ABT): 130 min | half-life ([4]; mouse liver microsomes, T1/2 (min) (−) ABT, (−) ABT): 5.7 min | half-life [4, 10]: 5.7 min | solubility kinetic (Kinetic Solubility; [11]): 57.8 µM | solubility kinetic (Kinetic Solubility; [12]): 22.5 µg/mL | Ki (STK16): 51 µM

Ki (GAK [5]): 0.035 µM | Ki (BMP2K): 18 µM | Primary Metabolism Site [6]: Aniline | Primary Metabolite Mass [6]: Parent − F + OH | IC50 (GAK [7]): 2.7 µM | Ki (AAK1): 5.7 µM | T1/2 Ratio ([4]; mouse liver microsomes, normalization with respect to internal control (propranolol)): 0.47 | half-life [4, 10]: 3.2 min | solubility kinetic (Kinetic Solubility; [11]): 39.5 µM | solubility kinetic (Kinetic Solubility; [12]): 13.2 µg/mL | Ki (STK16): 11 µM
Structure (SMILES): Fc1ccc(Nc2ccnc3ccc(Br)cc23)c(F)c1 [Compound 11, 6-Bromo-N-(2,4-difluorophenyl)quinolin-4-amine]

Structure (SMILES): C#Cc1cccc(Nc2ncnc3cc(OCCOC)c(OCCOC)cc23)c1 [Erlotinib, erlotinib]
Kd (EGFR): 0.0007 µM
